Measurements as given in patent US20260035359A1, “HERBICIDAL IMIDAZOLE COMPOUNDS” (SYNGENTA CROP PROTECTION AG, priority 2022, published 2026).

Columns and labels:
Format in all cases: in vivo
[1] = tested on: Ipomoea hederacea (IPOHE); assay: Post-emergence herbicidal glasshouse test; settings: 250 g/ha, sprayed after 8 days cultivation, evaluated after 13 days
Procedure, shortened: (§1)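 Pots of standard soil were sown and sprayed 1 day (pre-emergence) or 8 days (post-emergence) after sowing with compound at 250 g/ha unless otherwise stated, in acetone/water (50:50) with 0.5% Tween 20. Glasshouse at 24/16° C day/night, 14 h light, 65% humidity; percentage damage scored after 13 days on a five-point scale.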

[2] = tested on: Echinochloa crus-gali (ECHCG); assay: Post-emergence herbicidal glasshouse test; settings: 250 g/ha, sprayed after 8 days cultivation, evaluated after 13 days
Procedure, shortened: as §1

[3] = tested on: Setaria faberi (SETFA); assay: Post-emergence herbicidal glasshouse test; settings: 250 g/ha, sprayed after 8 days cultivation, evaluated after 13 days
Procedure, shortened: as §1

[4] = tested on: Amaranthus retoflexus (AMARE); assay: Post-emergence herbicidal glasshouse test; settings: 250 g/ha, sprayed after 8 days cultivation, evaluated after 13 days
Procedure, shortened: as §1

[5] = tested on: Amaranthus pa/meri (AMAPA); assay: Post-emergence herbicidal glasshouse test; settings: 250 g/ha, sprayed after 8 days cultivation, evaluated after 13 days
Procedure, shortened: as §1

[6] = tested on: Ipomoea hederacea (IPOHE); assay: Pre-emergence herbicidal glasshouse test; settings: 250 g/ha, sprayed after one day cultivation, evaluated after 13 days
Procedure, shortened: as §1

[7] = tested on: Echinochloa crus-gali (ECHCG); assay: Pre-emergence herbicidal glasshouse test; settings: 250 g/ha, sprayed after one day cultivation, evaluated after 13 days
Procedure, shortened: as §1

[8] = tested on: Setaria faberi (SETFA); assay: Pre-emergence herbicidal glasshouse test; settings: 250 g/ha, sprayed after one day cultivation, evaluated after 13 days
Procedure, shortened: as §1

[9] = tested on: Amaranthus retoflexus (AMARE); assay: Pre-emergence herbicidal glasshouse test; settings: 250 g/ha, sprayed after one day cultivation, evaluated after 13 days
Procedure, shortened: as §1

[10] = tested on: Amaranthus pa/meri (AMAPA); assay: Pre-emergence herbicidal glasshouse test; settings: 250 g/ha, sprayed after one day cultivation, evaluated after 13 days
Procedure, shortened: as §1

| Compound | percentage damage caused to the plant, IPOHE [1] | percentage damage caused to the plant, ECHCG [2] | percentage damage caused to the plant, SETFA [3] | percentage damage caused to the plant, AMARE [4] | percentage damage caused to the plant, AMAPA [5] | percentage damage caused to the plant, IPOHE [6] | percentage damage caused to the plant, ECHCG [7] | percentage damage caused to the plant, SETFA [8] | percentage damage caused to the plant, AMARE [9] | percentage damage caused to the plant, AMAPA [10] |
| --- | --- | --- | --- | --- | --- | --- | --- | --- | --- | --- |
| FC(F)(F)c1cn(Cc2ncc(Cl)cn2)c(CCn2ccc(C(F)(F)F)n2)n1 [Compound 1.033] | 4 (4=61-80%) | 3 (3=41-60%) | 3 (3=41-60%) | 4 (4=61-80%) | 3 (3=41-60%) | 5 (5=81-100%) | 3 (3=41-60%) | 4 (4=61-80%) | 5 (5=81-100%) | 5 (5=81-100%) |
| C#Cc1nc(C(F)(F)F)cn1Cc1ncc(Cl)cn1 [Compound 1.084] | 1 (1=0-20%) | 1 (1=0-20%) | 1 (1=0-20%) | 2 (2=21-40%) | 2 (2=21-40%) | 1 (1=0-20%) | 1 (1=0-20%) | 1 (1=0-20%) | 2 (2=21-40%) | 1 (1=0-20%) |
| FC(F)(F)CCc1nc(C(F)(F)F)cn1Cc1ncc(Cl)cn1 [Compound 1.002, 5-chloro-2-[[4-(trifluoromethyl)-2-(3,3,3-trifluoropropyl)imidazol-1-yl]methyl]pyrimidine] | 5 (5=81-100%) | 5 (5=81-100%) | 5 (5=81-100%) | 5 (5=81-100%) | 5 (5=81-100%) | 5 (5=81-100%) | 5 (5=81-100%) | 5 (5=81-100%) | 5 (5=81-100%) | 5 (5=81-100%) |
| CC(C)(C#N)Cc1nc(C(F)(F)F)cn1Cc1ncc(Cl)cn1 [Compound 1.061] | 4 (4=61-80%) | 1 (1=0-20%) | 1 (1=0-20%) | 4 (4=61-80%) | 3 (3=41-60%) | 4 (4=61-80%) | 1 (1=0-20%) | 1 (1=0-20%) | 3 (3=41-60%) | 3 (3=41-60%) |
| FC(F)c1nc(C(F)(F)F)cn1Cc1ncc(Cl)cn1 [Compound 1.070, 5-chloro-2-[[2-(difluoromethyl)-4-(trifluoromethyl)imidazol-1-yl]methyl]pyrimidine] | 2 (2=21-40%) | 1 (1=0-20%) | 1 (1=0-20%) | 1 (1=0-20%) | 1 (1=0-20%) | 3 (3=41-60%) | 1 (1=0-20%) | 1 (1=0-20%) | 5 (5=81-100%) | 5 (5=81-100%) |
| CC(F)(F)CCc1nc(C(F)(F)F)cn1Cc1ncc(Cl)cn1 [Compound 1.085] | 4 (4=61-80%) | 4 (4=61-80%) | 5 (5=81-100%) | 5 (5=81-100%) | 5 (5=81-100%) | 5 (5=81-100%) | 5 (5=81-100%) | 5 (5=81-100%) | 5 (5=81-100%) | 5 (5=81-100%) |
| C=CCCc1nc(C(F)(F)F)cn1Cc1ncc(Cl)cn1 [Compound 1.020, 2-[[2-but-3-enyl-4-(trifluoromethyl)imidazol-1-yl]methyl]-5-chloro-pyrimidine] | 2 (2=21-40%) | 2 (2=21-40%) | 1 (1=0-20%) | 3 (3=41-60%) | 2 (2=21-40%) | 4 (4=61-80%) | 5 (5=81-100%) | 4 (4=61-80%) | 5 (5=81-100%) | 5 (5=81-100%) |
| CC(C)(C#N)CCc1nc(C(F)(F)F)cn1Cc1ncc(Cl)cn1 [Compound 1.062] | 3 (3=41-60%) | 1 (1=0-20%) | 2 (2=21-40%) | 2 (2=21-40%) | 2 (2=21-40%) | 5 (5=81-100%) | 4 (4=61-80%) | 4 (4=61-80%) | 5 (5=81-100%) | 5 (5=81-100%) |
| CC(O)CCc1nc(C(F)(F)F)cn1Cc1ncc(Cl)cn1 (centres unmarked) [Compound 1.082] | 1 (1=0-20%) | 1 (1=0-20%) | 1 (1=0-20%) | 2 (2=21-40%) | 3 (3=41-60%) | 1 (1=0-20%) | 1 (1=0-20%) | 2 (2=21-40%) | 4 (4=61-80%) | 2 (2=21-40%) |
| N#CC1(c2nc(C(F)(F)F)cn2Cc2ncc(Cl)cc2F)CC1 [Compound 1.069] | 4 (4=61-80%) | 1 (1=0-20%) | 1 (1=0-20%) | 4 (4=61-80%) | 4 (4=61-80%) | 4 (4=61-80%) | 1 (1=0-20%) | 1 (1=0-20%) | 5 (5=81-100%) | 4 (4=61-80%) |
| CSCCc1nc(C(F)(F)F)cn1Cc1ncc(Cl)cn1 [Compound 1.083] | 4 (4=61-80%) | 1 (1=0-20%) | 1 (1=0-20%) | 4 (4=61-80%) | 3 (3=41-60%) | 5 (5=81-100%) | 1 (1=0-20%) | 1 (1=0-20%) | 4 (4=61-80%) | 3 (3=41-60%) |
| CCOCc1nc(C(F)(F)F)cn1Cc1ncc(Cl)cn1 [Compound 1.039] | 2 (2=21-40%) | 1 (1=0-20%) | 1 (1=0-20%) | 2 (2=21-40%) | 2 (2=21-40%) | 2 (2=21-40%) | 1 (1=0-20%) | 2 (2=21-40%) | 4 (4=61-80%) | 3 (3=41-60%) |
| OCC(O)CCc1nc(C(F)(F)F)cn1Cc1ncc(Cl)cn1 (centres unmarked) [Compound 1.011, 4-[1-[(5-chloropyrimidin-2-yl)methyl]-4-(trifluoromethyl)imidazol-2-yl]butane-1,2-diol] | 3 (3=41-60%) | 1 (1=0-20%) | 1 (1=0-20%) | 2 (2=21-40%) | 2 (2=21-40%) | 1 (1=0-20%) | 1 (1=0-20%) | 1 (1=0-20%) | 1 (1=0-20%) | 1 (1=0-20%) |
| FC(F)(F)CCCc1nc(Br)cn1Cc1ncc(Cl)cn1 [Compound 1.003, 2-[[4-bromo-2-(4,4,4-trifluorobutyl)imidazol-1-yl]methyl]-5-chloro-pyrimidine] | 2 (2=21-40%) | 1 (1=0-20%) | 1 (1=0-20%) | 2 (2=21-40%) | 2 (2=21-40%) | 2 (2=21-40%) | 1 (1=0-20%) | 1 (1=0-20%) | 1 (1=0-20%) | 1 (1=0-20%) |
